One series has as its target T1, CYP2C19 (Homo sapiens, UniProt P33261).
T1 construct: Standard incubation mixtures of 0.5 ml contained microsomal protein (0.1–0.5 mg); from tissue; host or cells: pooled human liver microsomes (ten donors)
Kind of series: S-mephenytoin 4′ -hydroxylation in human liver microsomes. Format: in vitro ADME. The settings on record: 100 μM S-mephenytoin. (Liver microsomes are a subcellular fraction often used to study metabolism.)

Series [1] concerns M. tuberculosis ATCC 35812 (Kurono). The series can be described thus: Susceptibility testing (agar dilution MIC). The format is cell-based. The settings on record: Mycobacterium tuberculosis, ATCC35812, 336 h; 7H11 agar, 37 °C, 14 d; read-out: MIC. (Agar dilution tests growth on a series of plates holding different concentrations.)
Series [2] relates to clinically isolated M. tuberculosis (27 test strains). Kind of series: Checkerboard method, combination with existing TB drugs. The format is cell-based. Particulars: antagonism = FIC index >4.0. The text has this:
In addition, the efficacy of OPC-67683 in combination with currently used anti-TB drugs RFP, INH, EB, and SM was examined in vitro using the checkerboard method.

Series [3] is classed as in vitro ADME, human, rat, mouse, dog, rabbit, and monkey. Particulars: 2 h. On the procedure:
The study was undertaken to investigate the metabolites produced by the metabolic reactions of OPC-67683 using human, rat, mouse, dog, rabbit, and monkey liver microsomes. Pooled human liver microsomes (20 mg/ml) from ten donors were prepared at the Biomedical Research Institute, Human and Animal Bridge Discussion Group (Chiba, Japan). Human liver samples were legally procured from the National Disease Research Interchange (http://www.ndriresource.org/) through the international partnership with the Human and Animal Bridge Discussion Group. The study was conducted in accordance with the Declaration of Helsinki.
The reactions were performed in duplicate in a shaking water bath at 37 °C for 2 h. The incubation mixtures were extracted with acetonitrile and ethyl acetate, and the samples were analyzed by HPLC and LC-ESI-MS/MS.

In series [4] the test system is M. tuberculosis ATCC 35838 (H37Rv-R-R). Kind of series: microbe, parasite or virus in culture. Format: cell-based. The settings on record: Mycobacterium tuberculosis, 336 h.
Another series deals with T2, CYP2A6 (Homo sapiens, UniProt P11509).
T2 construct: Standard incubation mixtures of 0.5 ml contained microsomal protein (0.1–0.5 mg); from tissue; host or cells: pooled human liver microsomes (ten donors)
T2 sequence (P11509 1-494): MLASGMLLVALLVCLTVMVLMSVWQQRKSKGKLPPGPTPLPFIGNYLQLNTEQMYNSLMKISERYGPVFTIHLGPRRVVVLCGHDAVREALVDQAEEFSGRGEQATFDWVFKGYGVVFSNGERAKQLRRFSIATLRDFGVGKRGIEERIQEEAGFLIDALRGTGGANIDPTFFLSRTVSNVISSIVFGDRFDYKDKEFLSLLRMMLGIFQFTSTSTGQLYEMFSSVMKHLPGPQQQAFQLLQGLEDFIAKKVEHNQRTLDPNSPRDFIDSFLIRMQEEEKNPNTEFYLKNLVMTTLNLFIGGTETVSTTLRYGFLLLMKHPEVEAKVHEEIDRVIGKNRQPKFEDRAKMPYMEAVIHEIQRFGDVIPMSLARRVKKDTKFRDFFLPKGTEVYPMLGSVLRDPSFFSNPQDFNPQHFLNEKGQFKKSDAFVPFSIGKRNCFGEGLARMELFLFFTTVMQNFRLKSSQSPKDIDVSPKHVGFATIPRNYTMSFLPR
Kind of series: Coumarin 7-hydroxylation in human liver microsomes. Particulars: 2 μM coumarin. The format is in vitro ADME.

Series [5] relates to clinically isolated M. tuberculosis. The series can be described thus: microbe, parasite or virus in culture. The settings on record: for MIC90: Mycobacterium tuberculosis, read-out: MIC90. The format is cell-based.
The subject of series [6] is M. tuberculosis ATCC 35820 (H37Rv-S-R). The series can be described thus: microbe, parasite or virus in culture. Format: cell-based. The settings on record: Mycobacterium tuberculosis, 336 h.
The target of another series is T3, CYP2D6 (Homo sapiens, UniProt P10635).
T3 construct: Standard incubation mixtures of 0.5 ml contained microsomal protein (0.1–0.5 mg); from tissue; host or cells: pooled human liver microsomes (ten donors)
T3 sequence (P10635 whole entry): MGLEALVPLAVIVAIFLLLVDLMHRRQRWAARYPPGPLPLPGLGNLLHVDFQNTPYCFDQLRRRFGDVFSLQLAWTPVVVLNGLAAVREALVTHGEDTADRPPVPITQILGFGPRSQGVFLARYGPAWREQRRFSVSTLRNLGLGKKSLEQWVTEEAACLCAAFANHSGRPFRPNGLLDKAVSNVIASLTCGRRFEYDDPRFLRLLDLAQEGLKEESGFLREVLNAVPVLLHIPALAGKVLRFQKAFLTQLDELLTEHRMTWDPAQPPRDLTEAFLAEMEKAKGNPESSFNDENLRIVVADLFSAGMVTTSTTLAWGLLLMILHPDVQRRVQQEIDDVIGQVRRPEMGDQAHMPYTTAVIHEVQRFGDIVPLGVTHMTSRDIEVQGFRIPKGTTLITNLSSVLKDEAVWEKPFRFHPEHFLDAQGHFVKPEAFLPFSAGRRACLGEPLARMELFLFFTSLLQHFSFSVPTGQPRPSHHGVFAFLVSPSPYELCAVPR
The series can be described thus: Bufuralol 1′ -hydroxylation in human liver microsomes. The settings on record: 20 μM bufuralol. Format: in vitro ADME.

In brackets after ≈: the same amount, converted by molar mass. Like-named read-outs stand apart in the source and are kept apart here.

T1 sequence (P33261 whole entry): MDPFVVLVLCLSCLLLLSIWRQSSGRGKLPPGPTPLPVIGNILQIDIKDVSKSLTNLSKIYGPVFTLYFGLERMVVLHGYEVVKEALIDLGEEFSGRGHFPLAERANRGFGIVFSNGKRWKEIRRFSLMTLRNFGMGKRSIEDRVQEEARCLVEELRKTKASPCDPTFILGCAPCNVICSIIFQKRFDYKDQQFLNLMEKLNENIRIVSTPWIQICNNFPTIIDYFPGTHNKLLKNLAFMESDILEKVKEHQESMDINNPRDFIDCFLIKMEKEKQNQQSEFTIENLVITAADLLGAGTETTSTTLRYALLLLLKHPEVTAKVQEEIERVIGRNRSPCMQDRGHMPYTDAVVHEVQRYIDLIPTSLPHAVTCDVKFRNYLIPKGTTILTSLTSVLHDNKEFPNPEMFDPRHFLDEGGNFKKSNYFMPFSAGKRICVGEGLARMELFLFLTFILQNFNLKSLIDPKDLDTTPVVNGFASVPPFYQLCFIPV

Consider `C[C@]1(COc2ccc(N3CCC(Oc4ccc(OC(F)(F)F)cc4)CC3)cc2)Cn2cc([N+](=O)[O-])nc2O1` [OPC-67683, (R)-2-methyl-6-nitro-2-(4-[4-(4-trifluoromethoxyphenoxy)piperidin-1-yl]phenoxymethyl}-2,3-dihydroimidazo[2,1-b]oxazole], for which the “Percent of Control” value at CYP2C19 (10 μM) is given as 113.3% of Control; on CYP2C19 (100 μM) it was 107.6% of Control; on CYP2A6 (10 μM), 103.1% of Control; at CYP2A6 (30 μM), 97.8% of Control; at CYP2D6 (10 μM), 99.1% of Control; on CYP2D6 (30 μM) it was 103.3% of Control. Also, the “Percent of Control” value on CYP2D6 (100 μM) is given as 97.8% of Control. The MIC in series [1] stood at 0.012 µg/mL (≈ 0.0225 µM); in series [4] it was 0.006 µg/mL (≈ 0.0112 µM); in series [6], 0.012 µg/mL (≈ 0.0225 µM). The “Antagonistic activity in combination with RFP, INH, EB, and SM” value in [2] is given as “no antagonistic activity”. Besides, in series [3], the “Stability in the in vitro metabolism of liver microsomes” value is “stable”. For the same molecule, the “MIC90 of OPC-67683 times lower than that of EB” value in [5] is about 303 times. The “MIC90 of OPC-67683 times lower than that of INH” value in [5] is on record as “eight”. Also, in series [5], the “MIC90 of OPC-67683 times lower than that of RFP” value is recorded as “about 24 times”. Further, the “MIC90 of OPC-67683 times lower than that of SM” value in series [5] is recorded as about 244 times. Besides, the MIC90 in series [5] (EB-susceptible M. tuberculosis (56 strains)) worked out at 0.0121 µg/mL (≈ 0.0227 µM); in [5] (INH-susceptible M. tuberculosis (31 strains)) it was 0.0119 µg/mL (≈ 0.0223 µM); in series [5] (RFP-susceptible M. tuberculosis (31 strains)) it was 0.0125 µg/mL (≈ 0.0233 µM); in series [5] (SM-susceptible M. tuberculosis (49 strains)), 0.012 µg/mL (≈ 0.0225 µM); in series [5], 0.012 µg/mL (≈ 0.0225 µM).

Values taken from paper PMC1664607 (PLoS Medicine, 2006).
